Assay results: ChEMBL document CHEMBL4811224, “Antibacterial Prenylated p-Hydroxybenzoic Acid Derivatives from Oberonia myosurus and Identification of Putative Prenyltransferases” (2021)
In brackets after ≈: the same amount, converted by molar mass.

tested on: Staphylococcus aureus; assay: Antibacterial activity against Staphylococcus aureus subsp. aureus ATCC 29213 assessed as bacterial growth inhibition incubated for 24 hrs by Reed-Muench method; assay type: functional

Row | MIC50 [µg/mL] | SMILES
1 | 81 (≈ 281 µM) | C=C(C)C(O)Cc1cc(C(=O)O)cc2c1OC(C)(C)C=C2 (stereo not drawn)
2 | 7.6 (≈ 27.7 µM) | CC(C)=CCc1cc(C(=O)O)cc(CC=C(C)C)c1O
3 | 93 (≈ 323 µM) | CC(C)=CCc1cc(C(=O)O)cc2c1OC(C)(C)CC2=O
4 | 56 (≈ 131 µM) | CC(C)=CCc1cc(C(=O)O[C@@H]2CC(C(=O)O)=C[C@@H](O)[C@H]2O)cc2c1OC(C)(C)C=C2
5 | 23 (≈ 58.9 µM) | CC(C)=CCc1cc(C(=O)O[C@H](C)[C@@](C)(O)C(=O)O)cc(CC=C(C)C)c1O
6 | 15 (≈ 55.1 µM) | CC(C)=CCc1cc(C(=O)O)cc2c1OC(C)(C)C=C2
7 | 0.53 | CC1(C)S[C@@H]2[C@H](NC(=O)Cc3ccccc3)C(=O)N2[C@H]1C(=O)[O-].[Na+] [PENICILLIN G SODIUM]
8 | 89 (≈ 307 µM) | C=C(C)C(O)Cc1cc(C(=O)O)cc(CC=C(C)C)c1O (stereo not drawn)
